Assay results from US10316017B2, “COT modulators and methods of use thereof” (Gilead Sciences, Inc., priority 2015, dated 2019).
Like-named read-outs stand apart in the source and are kept apart here.

Tests used:
[1] = tested on: TNFα production in LPS-stimulated human monocytes; assay: Cot Monocyte TNFα Cell Based Assay; conditions: Homo sapiens, Monocyte, read-out: EC50 TNF
How it was run: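 Percent-of-control values derive from TR-FRET ratios of TNFα in spun-down media, referenced to unstimulated and LPS-stimulated wells. Exposure: 1 h compound preincubation, then 50 pg/ml LPS for 4 h, both at 37 °C, with 0.5% final DMSO.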

[2] = target: T1, human Cot catalytic domain (30-397 amino acids) (Homo sapiens, UniProt P41279); assay: High Throughput Cot Biochemical Assay (KinEASE TR-FRET); conditions: read-out: IC50 HTRF
T1 construct: Purified recombinant human Cot catalytic domain (30-397 amino acids) was purchased from Cama Biosciences; purchased Cama Biosciences (so in the source)
T1 sequence (P41279 30-397): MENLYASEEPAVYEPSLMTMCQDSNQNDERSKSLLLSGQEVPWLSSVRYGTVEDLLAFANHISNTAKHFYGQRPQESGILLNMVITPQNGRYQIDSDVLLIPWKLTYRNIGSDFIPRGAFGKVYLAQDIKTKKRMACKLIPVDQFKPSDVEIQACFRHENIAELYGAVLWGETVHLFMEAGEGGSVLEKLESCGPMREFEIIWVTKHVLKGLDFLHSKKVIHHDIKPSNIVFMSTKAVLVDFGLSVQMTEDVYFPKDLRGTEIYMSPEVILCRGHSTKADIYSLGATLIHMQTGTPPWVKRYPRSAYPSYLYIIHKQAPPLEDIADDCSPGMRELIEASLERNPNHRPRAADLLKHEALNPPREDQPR
How it was run: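 Phosphorylation of 1 μM XL665-STK3 peptide by 5 nM Cot catalytic domain was measured by time-resolved FRET using a europium […] antibody. ATP was 400 μM; buffer was 10 mM MOPS pH 7.0 with Mg2+ and DTT.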

[3] = TNFα in LPS-stimulated human monocytes
[4] = Cot KinEASE TR-FRET (HTRF) biochemical assay, 400 μM ATP
[5] = LPS-stimulated human monocytes, TNFα TR-FRET
[6] = Cot KinEASE TR-FRET, 400 μM ATP
[7] = Cot biochemical HTRF (KinEASE TR-FRET) assay

EC50 [1, 3] [nM]	IC50 [2, 4] [nM]	EC50 [1, 5] [nM]	IC50 [2, 6] [nM]	IC50 [2, 7] [nM]	Compound
808	32				[2H][C@](Nc1cc(Cl)c2ncc(C#N)c(Nc3cnc(F)c(F)c3)c2c1)(c1ccc(F)cc1)c1cn(Cc2c(F)cccc2F)nn1 [Example 329, (S)-8-chloro-6-(((1-(2,6-difluorobenzyl)-1H-1,2,3-triazol-4-yl)(4-fluorophenyl)methyl-d)amino)-4-((5,6-difluoropyridin-3-yl)amino)quinoline-3-carbonitrile]
4520	253				[2H][C@](Nc1cc(Cl)c2ncc(C#N)c(NCCC3CC3)c2c1)(c1ccc(F)cc1)c1cn(C2CC2)nn1 [Example 269, (S)-8-chloro-6-(((1-cyclopropyl-1H-1,2,3-triazol-4-yl)(4-fluorophenyl)methyl-d)amino)-4-((2-cyclopropylethyl)amino)quinoline-3-carbonitrile]
133	16				[2H][C@](Nc1cc(Cl)c2ncc(C#N)c(Nc3cccc(Cl)c3OC3CC3)c2c1)(c1ccc(F)cc1)c1cn(C2CC2)nn1 [Example 110, (S)-8-chloro-4-((3-chloro-2-cyclopropoxyphenyl)amino)-6-(((1-cyclopropyl-1H-1,2,3-triazol-4-yl)(4-fluorophenyl)methyl-d)amino) quinoline-3-carbonitrile]
20	1				[2H][C@@](Nc1cc(Cl)c2ncc(C#N)c(N[C@H](CCC#N)c3ccccc3)c2c1)(c1cn(C2CC2)nn1)c1cccc(C#N)c1C [Example 136, 8-chloro-4-(((R)-3-cyano-1-phenylpropyl)amino)-6-(((S)-(3-cyano-2-methylphenyl)(1-cyclopropyl-1H-1,2,3-triazol-4-yl)methyl-d)amino) quinoline-3-carbonitrile]
4380	154				[2H]C(Nc1cc(Cl)c2ncc(C#N)c(NCC(C)(C)C)c2c1)(c1ccc(F)cc1)c1nnnn1C (stereo not drawn) [Example 184, 8-chloro-6-(((4-fluorophenyl)(1-methyl-1H-tetrazol-5-yl)methyl-d)amino)-4-(neopentylamino) quinoline-3-carbonitrile]
75	4				[2H][C@](Nc1cc(Cl)c2ncc(C#N)c(N[C@H](CC#N)c3ccccc3)c2c1)(c1ccc(F)cc1)c1cn(C2CC2)nn1 [Example 331, 8-chloro-4-(((R)-2-cyano-1-phenylethyl)amino)-6-(((S)-(1-cyclopropyl-1H-1,2,3-triazol-4-yl)(4-fluorophenyl)methyl-d)amino)quinoline-3-carbonitrile]
		424	17		CC(C)(C)CNc1c(C#N)cnc2c(Cl)cc(N[C@@H](c3ccccc3)c3cn(C45CC(C4)C5)nn3)cc12 [Example 1093, (S)-6-(((1-(bicyclo[1.1.1]pentan-1-yl)-1H-1,2,3-triazol-4-yl)(phenyl)methyl)amino)-8-chloro-4-(neopentylamino)quinoline-3-carbonitrile]
4430				212	C[C@@H](n1cc([C@@H](Nc2cc(Cl)c3ncc(C#N)c(Nc4cnc(F)c(F)c4)c3c2)c2ccc(F)cc2)nn1)C(F)(F)F [Example 406, 8-chloro-4-((5,6-difluoropyridin-3-yl)amino)-6-(((S)-(4-fluorophenyl)(1-((R)-1,1,1-trifluoropropan-2-yl)-1H-1,2,3-triazol-4-yl)methyl)amino)quinoline-3-carbonitrile]
151	6				[2H][C@](Nc1cc(Cl)c2ncc(C#N)c(N[C@H](CC)c3ccccc3)c2c1)(c1ccc(F)cc1)c1cn(C2CC2)nn1 [Compound 2]
561				61	CC(C)(C)N1CCC(n2cc([C@@H](Nc3cc(Cl)c4ncc(C#N)c(NN5CCCCC5)c4c3)c3ccccc3)nn2)CC1 [Example 603, (S)-6-(((1-(1-(tert-butyl)piperidin-4-yl)-1H-1,2,3-triazol-4-yl)(phenyl)methyl)amino)-8-chloro-4-(piperidin-1-ylamino)quinoline-3-carbonitrile]
17100				> 10000	CC(Nc1c(C#N)cnc2c(Cl)cc(N[C@@H](c3ccc(Cl)cc3)c3cn(C4CCN(C(C)(C)C)CC4)nn3)cc12)c1ccccn1 (stereo partly drawn) [Example 697, 6-(((S)-(1-(1-(tert-butyl)piperidin-4-yl)-1H-1,2,3-triazol-4-yl)(4-chlorophenyl)methyl)amino)-8-chloro-4-((1-(pyridin-2-yl)ethyl)amino)quinoline-3-carbonitrile]
1280	78				N#Cc1cnc2c(Cl)cc(N[C@@H](c3ccc(F)cc3)c3cn(C4CCOCC4)nn3)cc2c1Nc1cnc(F)c(F)c1 [Example 380, (S)-8-chloro-4-((5,6-difluoropyridin-3-yl)amino)-6-(((4-fluorophenyl) (1-(tetrahydro-2H-pyran-4-yl)-1H-1,2,3-triazol-4-yl)methyl)amino)quinoline-3-carbonitrile]
		130	5		CCN1CCC(n2cc([C@@H](Nc3cc(Cl)c4ncc(C#N)c(NCC(C)(C)C)c4c3)c3ccc(Cl)cc3)nn2)CC1 [Example 954, (S)-8-chloro-6-(((4-chlorophenyl)(1-(1-ethylpiperidin-4-yl)-1H-1,2,3-triazol-4-yl)methyl)amino)-4-(neopentylamino)quinoline-3-carbonitrile]
		447	27		[2H][C@](Nc1cc(S(C)(=O)=O)c2ncc(C#N)c(NCC(C)(C)C)c2c1)(c1ccc(F)cc1)c1cn(C2CC2)nn1 [Example 931, (S)-6-(((1-cyclopropyl-1H-1,2,3-triazol-4-yl)(4-fluorophenyl)methyl-d)amino)-8-(methylsulfonyl)-4-(neopentylamino)quinoline-3-carbonitrile]
784				59	CC(C)(C)N1CCC(n2cc([C@@H](Nc3cc(Cl)c4ncc(C#N)c(Nc5c(F)cc(F)cc5F)c4c3)c3ccccc3)nn2)CC1 [Example 473, (S)-6-(((1-(1-(tert-butyl)piperidin-4-yl)-1H-1,2,3-triazol-4-yl)(phenyl)methyl)amino)-8-chloro-4-((2,4,6-trifluorophenyl)amino) quinoline-3-carbonitrile]
254	5				[2H][C@](Nc1cc(Cl)c2ncc(C#N)c(Nc3cccc(Cl)c3)c2c1)(c1cccc(C#N)c1)c1cn(C2CC2)nn1 [Example 274, (S)-8-chloro-4-((3-chlorophenyl)amino)-6-(((3-cyanophenyl)(1-cyclopropyl-1H-1,2,3-triazol-4-yl)methyl-d)amino)quinoline-3-carbonitrile]
1350				48	N#Cc1cnc2c(Cl)cc(N[C@H](c3c[nH]nn3)c3ccc(F)cc3Cl)cc2c1Nc1cnc(F)c(F)c1 [Example 422, (S)-8-chloro-6-(((2-chloro-4-fluorophenyl)(1H-1,2,3-triazol-4-yl)methyl)amino)-4-((5,6-difluoropyridin-3-yl)amino)quinoline-3-carbonitrile]
2140				94	N#Cc1cnc2c(Cl)cc(N[C@H](c3cn(C4COC4)nn3)c3ccccc3C(F)(F)F)cc2c1Nc1cnc(F)c(F)c1 [Example 501, (S)-8-chloro-4-((5,6-difluoropyridin-3-yl)amino)-6-(((1-(oxetan-3-yl)-1H-1,2,3-triazol-4-yl)(2-(trifluoromethyl)phenyl)methyl)amino)quinoline-3-carbonitrile]
